Laboratory results from patent US7056536B2, “Non-corrosive sterilant composition” (Ecolab Inc., priority 1998, dated 2006).

System: Bacillus cereus spores
Assay: Rate of Kill Antimicrobial Efficacy (SOP CB021-04), Formulas 1-8 with octanoic/peroctanoic acid, 40° C.
Type: cell-based
Details: on a weight basis
Procedure: Ecolab Microbiological Services SOP CB021-04; Rate of Kill Antimicrobial Efficacy. Following exposure to the formula and subsequent neutralization, spores were heat shocked for 13 minutes at 80° C. before plating. [table]

CCCCCCCC(=O)OO [peroctanoic acid, peroxyoctanoic acid]
effect on the sporicidal efficacy of 150 ppm POAA against B. cereus, compared with octanoic acid: greater effect
